# Patent US8133847B2, “Pyrido[2,3-B]pyrazine derivatives useful as herbicidal compounds” (Syngenta Limited, priority 2006, dated 2012)
# How the values were obtained:
# Test in all cases: Example B1 herbicidal action, post-emergence, 96-cell seed trays, climatic chamber
# Type in all cases: in vivo
# [1] = test system: Amaranthus retroflexus (AMARE); conditions: Application post-emergence, 1000 mg/l spray equivalent to 1000 g/ha, evaluated after 9 days
# Description: (§1) Seeds of a variety of test species were sown in sterilised standard soil in seed trays each having 96 cells. After cultivation for 8 to 9 days cultivation (post-emergence) under controlled conditions in a climatic chamber (cultivation at 23/17° C., day/night; 13 hours light; 50-60% humidity), the plants were treated with an aqueous spray solution of 1000 mg/l of the active ingredient dissolved in 10% DMSO (dimethyl sulfoxide, CAS RN 67-68-5) as a solvent, equivalent to 1000 g/ha. The plants were grown in the climatic chamber after application at (24/19° C., day/night; 13 hours light; 50-60% humidity) and watered twice daily. After 9 days until the test was evaluated (100=total damage to plant, 0=no damage to plant)
# [2] = test system: Solanum nigrum (SOLNI); conditions: Application post-emergence, 1000 mg/l spray equivalent to 1000 g/ha, evaluated after 9 days (100=total damage to plant, 0=no damage to plant)
# Description: as §1
# [3] = test system: Stellaria media (STEME); conditions: Application post-emergence, 1000 mg/l spray equivalent to 1000 g/ha, evaluated after 9 days (100=total damage to plant, 0=no damage to plant)
# Description: as §1
# [4] = test system: Nasturtium officinale (NAAOF); parameters: scale not given here; conditions: Application post-emergence, 1000 mg/l spray equivalent to 1000 g/ha, evaluated after 9 days (100=total damage to plant, 0=no damage to plant)
# Description: as §1
SMILES,"damage to plant, Amaranthus retroflexus (AMARE) [1]","damage to plant, Solanum nigrum (SOLNI) [2]","damage to plant, Stellaria media (STEME) [3]","damage to plant, Nasturtium officinale (NAAOF) [4]"
CC(C)C(=O)Oc1c(-c2cccc(C(F)(F)F)c2Cl)c(=O)n(CC2CC2)c2nccnc12 [Compound C124],9,7,8,8
"Cn1c(=O)c(-c2c(F)ccc(F)c2Cl)c(O)c2c1ncc[n+]2[O-] [Compound D6, 7-(2-chloro-3,6-difluorophenyl)-8-hydroxy-5-methyl-1-oxy-5H-pyrido[2,3-b]pyrazin-6-one]",5,3,6,7
CC(=O)Oc1c(-c2c(Cl)cccc2Cl)c(=O)n(C)c2nccnc12 [Compound C33],3,6,6,7
C=CCn1c(=O)c(-c2cccc(C(F)(F)F)c2Cl)c(OC(=O)C(C)C)c2nccnc21 [Compound C125],2,8,7,7
CCC(=O)Oc1c(-c2ccc(F)cc2Cl)c(=O)[nH]c2nccnc12 [Compound B3],8,0,2,0
CC(=O)Oc1c(-c2ccc(Cl)cc2Cl)c(=O)n(C)c2nccnc12 [Compound C43],3,3,5,5
Cn1c(=O)c(-c2c(Cl)ccc(Cl)c2Cl)c(OC(=O)C(C)(C)C)c2nccnc21 [Compound C108],6,3,5,5
CC(C)n1c(=O)c(-c2c(F)ccc(F)c2Cl)c(OC(=O)C(C)(C)C)c2nccnc21 [Compound C19],0,3,6,4
CCn1c(=O)c(-c2c(F)ccc(C)c2Cl)c(OC(=O)C(C)C)c2nccnc21 [Compound C127],2,7,7,6
O=c1[nH]c2nccnc2c(O)c1-c1ccc2ccccc2c1 [Compound A29],2,2,3,0
CC(=O)Oc1c(-c2c(Cl)cc(C(F)(F)F)cc2Cl)c(=O)[nH]c2nccnc12 [Compound B15],0,0,2,7
CC(C)C(=O)Oc1c(-c2c(F)ccc(F)c2Cl)c(=O)n(C)c2nc(Cl)cnc12 [Compound C82],4,0,0,0
COc1ccccc1-c1c(OC(=O)C(C)C)c2nccnc2n(C)c1=O [Compound C69],0,0,6,5
Cc1ccccc1-c1c(O)c2nccnc2[nH]c1=O [Compound A6],0,5,0,0
C=CCn1c(=O)c(-c2c(F)ccc(F)c2Cl)c(OC(C)=O)c2nccnc21 [Compound C14],7,4,8,8
CC#CCOC(=O)Oc1c(-c2c(F)ccc(F)c2Cl)c(=O)n(C)c2nccnc12 [Compound C73],4,0,4,6
CCn1c(=O)c(-c2ccc(F)cc2Cl)c(OC(=O)C(C)C)c2nccnc21 [Compound C3],0,5,6,7
CCn1c(=O)c(-c2cccc(Cl)c2Cl)c(OC(=O)C(C)C)c2nccnc21 [Compound C45],8,6,9,8
